Experimental data as given in patent US12234216B2, “Isotopologues salts, crystalline forms, stereoisomers, of methylone and ethylone and methods of use thereof” (Terran Biosciences Inc., priority 2021, dated 2025).

Assay: Metabolic stability in human liver microsomes
Assay type: in vitro ADME
Conditions: for difference in half-life and intrinsic clearance compared with the corresponding non-deuterated methylone hydrochloride: human liver microsomes; for CLint (μL/min/mg protein): human liver microsomes 0.5 mg/mL, 1 μM compound, NADPH, 0-45 min
Method: Pooled liver microsomes are purchased from a reputable commercial supplier. Microsomes are stored at […] prior to use. Microsomes (final protein concentration 0.5 mg/mL), 0.1 M phosphate buffer pH 7.4 and test compound (final substrate concentration 1 μM; final DMSO concentration 0.25%) are preincubated at 37° C. prior to the addition of NADPH (final concentration 1 mM) to initiate the reaction. A minus cofactor control incubation is included for each compound tested where 0.1 M phosphate buffer pH 7.4 is added instead of NADPH (minus NADPH). Two control compounds are included with each species. All incubations are performed singularly for each test compound. Each compound is incubated for 0, 5, 15, 30 and 45 min. The control (minus NADPH) is incubated for 45 min only. The reactions are stopped by transferring incubate into acetonitrile at the appropriate time points, in a 1:3 ratio. The termination plates are centrifuged at 3,000 rpm for 20 min at 4° C. to precipitate the protein.
From a plot of ln peak area ratio (compound peak area/internal standard peak area) against time, the gradient of the line is determined. Subsequently, half-life and intrinsic clearance are calculated using the equations below: Elimination rate constant (k)=(−gradient) Half-life (t½)(min)=0.693/k Intrinsic clearance (CLint)(μL/min/mg protein)=V×0.693/t½ where V=Incubation volume (μL)/Microsomal protein (mg)
Relevant control compounds were assessed, ensuring intrinsic clearance values fall within the specified limits (if available).

## Cl.[2H]C([2H])([2H])N[C@@H](C)C(=O)c1ccc2c(c1)OC([2H])([2H])O2 [(S)-Methylone-d5 hydrochloride, (S)-1-(benzo[d][1,3]dioxol-5-yl-2,2-d2)-2-((methyl-d3)amino)propan-1-one hydrochloride]
  difference in half-life and intrinsic clearance compared with the corresponding non-deuterated methylone hydrochloride: most significant difference in half-life and intrinsic clearance
  CLint (μL/min/mg protein): 9.07 μL/min/mg protein

## Cl.[2H]C([2H])([2H])NC(C)C(=O)c1ccc2c(c1)OCO2 (racemic) [(rac)-Methylone-d3 hydrochloride, 1-(benzo[d][1,3]dioxol-5-yl)-2-((methyl-d3)amino)propan-1-one HCl]
  difference in half-life and intrinsic clearance compared with the corresponding non-deuterated methylone hydrochloride: differences in half-life and intrinsic clearance

## Cl.[2H]C([2H])([2H])NC(C)C(=O)c1ccc2c(c1)OC([2H])([2H])O2 (racemic) [(rac)-Methylone-d5 hydrochloride, 1-(benzo[d][1,3]dioxol-5-yl-2,2-d2)-2-((methyl-d3)amino)propan-1-one HCl]
  difference in half-life and intrinsic clearance compared with the corresponding non-deuterated methylone hydrochloride: most significant difference in half-life and intrinsic clearance

## Cl.[2H]C([2H])([2H])N[C@@H](C)C(=O)c1ccc2c(c1)OCO2 [(S)-Methylone-d3 hydrochloride, (S)-1-(benzo[d][1,3]dioxol-5-yl)-2-((methyl-d3)amino)propan-1-one HCl]
  difference in half-life and intrinsic clearance compared with the corresponding non-deuterated methylone hydrochloride: differences in half-life and intrinsic clearance
  CLint (μL/min/mg protein): 9.60 μL/min/mg protein

## Cl.[2H]C1([2H])Oc2ccc(C(=O)[C@@H](C)NC)cc2O1 [(R)-Methylone-d2 hydrochloride, (R)-1-(benzo[d][1,3]dioxol-5-yl-2,2-d2)-2-((methyl)amino)propan-1-one HCl]
  difference in half-life and intrinsic clearance compared with the corresponding non-deuterated methylone hydrochloride: differences in half-life and intrinsic clearance

## Cl.[2H]C([2H])([2H])N[C@H](C)C(=O)c1ccc2c(c1)OCO2 [(R)-Methylone-d3 hydrochloride, (R)-1-(benzo[d][1,3]dioxol-5-yl)-2-((methyl-d3)amino)propan-1-one HCl]
  difference in half-life and intrinsic clearance compared with the corresponding non-deuterated methylone hydrochloride: differences in half-life and intrinsic clearance

## Cl.[2H]C1([2H])Oc2ccc(C(=O)C(C)NC)cc2O1 (racemic) [(rac)-Methylone-d2 hydrochloride, 1-(benzo[d][1,3]dioxol-5-yl-2,2-d2)-2-((methyl)amino)propan-1-one HCl]
  difference in half-life and intrinsic clearance compared with the corresponding non-deuterated methylone hydrochloride: differences in half-life and intrinsic clearance
